Like-named read-outs stand apart in the source and are kept apart here.
Tests used:
[1] = system: NfGlck; experiment: coupled glucokinase assay, absorbance at […] nm; assay type: biochemical, Naegleria fowleri; conditions: read-out: apparent Km, MgCl2
[2] = target: T1, HsGlck (Homo sapiens, UniProt P35557); experiment: enzyme inhibition assay; assay type: biochemical
T1 sequence (P35557 1-465): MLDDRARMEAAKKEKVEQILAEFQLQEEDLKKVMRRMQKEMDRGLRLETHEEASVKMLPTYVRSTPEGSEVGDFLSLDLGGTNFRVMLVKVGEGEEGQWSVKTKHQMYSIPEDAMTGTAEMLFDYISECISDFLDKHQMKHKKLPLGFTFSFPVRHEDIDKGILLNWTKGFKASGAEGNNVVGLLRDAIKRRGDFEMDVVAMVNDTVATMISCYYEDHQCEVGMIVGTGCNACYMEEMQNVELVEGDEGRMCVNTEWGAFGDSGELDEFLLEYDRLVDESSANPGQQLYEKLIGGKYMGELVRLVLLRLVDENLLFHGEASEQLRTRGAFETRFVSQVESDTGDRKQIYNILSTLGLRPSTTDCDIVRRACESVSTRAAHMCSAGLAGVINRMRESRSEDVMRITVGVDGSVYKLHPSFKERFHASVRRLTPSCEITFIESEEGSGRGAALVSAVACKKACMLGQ

[3] = target: NfGlck; experiment: coupled glucokinase assay, absorbance at […] nm; assay type: biochemical, Naegleria fowleri; conditions: pH 7.4, MgCl2
[4] = target: T2, TbHK1 (Trypanosoma brucei, UniProt Q38C42); experiment: enzyme inhibition assay; assay type: biochemical
T2 sequence (Q38C42 1-471): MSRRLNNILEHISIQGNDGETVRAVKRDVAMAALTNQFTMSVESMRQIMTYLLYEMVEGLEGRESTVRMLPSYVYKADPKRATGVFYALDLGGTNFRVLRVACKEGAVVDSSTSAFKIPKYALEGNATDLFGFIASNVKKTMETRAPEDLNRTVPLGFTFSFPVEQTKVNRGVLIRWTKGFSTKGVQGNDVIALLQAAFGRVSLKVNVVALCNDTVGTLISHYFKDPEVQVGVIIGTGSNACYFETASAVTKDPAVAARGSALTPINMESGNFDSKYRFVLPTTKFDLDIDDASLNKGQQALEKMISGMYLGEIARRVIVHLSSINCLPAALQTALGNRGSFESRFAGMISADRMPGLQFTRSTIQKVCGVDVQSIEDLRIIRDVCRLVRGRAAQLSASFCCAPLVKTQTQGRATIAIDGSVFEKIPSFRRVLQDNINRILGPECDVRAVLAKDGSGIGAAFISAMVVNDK

[5] = target: T2, TbHK1; conditions: read-out: TbHK1 IC50; inhibitor
[6] = target: T1, HsGlck; experiment: biochemical
[7] = target: NfGlck; experiment: coupled glucokinase assay, absorbance at […] nm; assay type: biochemical, Naegleria fowleri
[8] = target: T3, PfHK (Plasmodium falciparum, UniProt Q02155); experiment: enzyme inhibition assay; assay type: biochemical
T3 sequence (Q02155 1-493): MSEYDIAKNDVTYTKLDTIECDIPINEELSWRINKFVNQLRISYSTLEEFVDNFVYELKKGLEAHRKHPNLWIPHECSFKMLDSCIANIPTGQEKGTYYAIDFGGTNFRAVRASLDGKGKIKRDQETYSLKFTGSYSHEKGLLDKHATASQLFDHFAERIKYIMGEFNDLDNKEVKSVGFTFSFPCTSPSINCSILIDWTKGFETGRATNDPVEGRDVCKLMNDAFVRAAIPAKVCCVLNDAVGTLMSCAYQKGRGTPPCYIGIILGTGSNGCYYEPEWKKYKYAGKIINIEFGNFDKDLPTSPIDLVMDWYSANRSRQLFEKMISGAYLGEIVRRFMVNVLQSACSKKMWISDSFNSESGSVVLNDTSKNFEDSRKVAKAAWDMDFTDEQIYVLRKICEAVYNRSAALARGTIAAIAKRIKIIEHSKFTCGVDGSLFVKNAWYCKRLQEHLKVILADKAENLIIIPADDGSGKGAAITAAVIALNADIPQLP

[9] = mixed inhibitor with respect to ATP

Row | IC50 [2] [µM] | IC50 [3] [µM] | IC50 [4] [µM] | Compound | further results
1 | – | > 10 | – | O=c1c2ccccc2sn1-c1ccccc1 [compound 4, Ebsulfur] | –
2 | > 10 | > 10 | > 10 | CC(C)(C)c1ccc(C(=O)Nc2cc(Cl)c(-c3cccnc3)cc2C(=O)O)cc1 [compound 7, SID162211077] | –
3 | > 10 | > 10 | > 10 | CC(C)(C)c1ccc(C(=O)Nc2cc(Cl)c(-c3cccc(F)c3)cc2C(=O)O)cc1 [compound 9, SID162211078] | –
4 | > 10 | > 10 | 3.1 ± 0.17 | CC(C)(C)c1ccc(C(=O)Nc2cc(Cl)c(-c3ccc(O)cc3)cc2C(=O)O)cc1 [compound 16, SID162211079] | –
5 | > 10 | 5.9 ± 0.26 | > 10 | CC(C)(C)c1ccc(C(=O)Nc2cc(Cl)c(-c3ccc(F)c(Cl)c3)cc2C(=O)O)cc1 [compound 12, SID162211073] | –
6 | > 10 | > 10 | 1.2 ± 0.1 | CC(C)(C)c1ccc(C(=O)Nc2cc(Cl)c(-c3ccccc3O)cc2C(=O)O)cc1 [compound 17, SID162211085] | –
7 | > 10 | > 10 | 6.7 ± 1 | CC(C)(C)c1ccc(C(=O)Nc2cc(Cl)c(-c3ccccc3F)cc2C(=O)O)cc1 [compound 10, SID162211083] | –
8 | > 10 | – | 2.9 ± 1.13 | NC(N)=Nc1ccc(-c2ccc(-c3ccc(N=C(N)N)cc3Cl)o2)c(Cl)c1 [compound 1, 2-[3-chloro-4-[5-[2-chloro-4-(diaminomethylideneamino)phenyl]furan-2-yl]phenyl]guanidine] | IC50 [3, 9]: 2.02 ± 0.31 µM; IC50 [8]: 0.78 ± 0.17 µM
9 | 2.58 ± 0.53 | – | 1.3 ± 0.43 | NC(N)=Nc1ccc(-c2ccc(-c3ccc(N=C(N)N)c(Cl)c3)o2)cc1Cl [compound 2, 2-[2-chloro-4-[5-[3-chloro-4-(diaminomethylideneamino)phenyl]furan-2-yl]phenyl]guanidine] | IC50 [3, 9]: 0.7 ± 0.09 µM; IC50 [8]: 0.16 ± 0.06 µM

Further lines, the molecule ahead of its results:

Row | Compound | IC50 [2] [µM] | IC50 [3] [µM] | IC50 [4] [µM] | further results
10 | Nc1ncnc2c1ncn2[C@@H]1O[C@H](COP(=O)(O)OP(=O)(O)OP(=O)(O)O)[C@@H](O)[C@H]1O [ATP] | – | – | – | Km ([1]; co-substrate glucose): 142 ± 9.9 µM
11 | CC(C)(C)c1ccc(C(=O)Nc2cc(Cl)c(-c3ccc(Cl)c(Cl)c3)cc2C(=O)O)cc1 [compound 13, SID162211080] | > 10 | 2.9 ± 0.32 | > 10 | –
12 | COc1cccc(-c2cc(C(=O)O)c(NC(=O)c3ccc(C(C)(C)C)cc3)cc2Cl)c1 [compound 14, SID162211075] | – | > 10 | 3.9 ± 0.65 | –
13 | COc1ccccc1-c1cc(C(=O)O)c(NC(=O)c2ccc(C(C)(C)C)cc2)cc1Cl [compound 15, SID162211076] | > 10 | > 10 | 9.3 ± 0.55 | –
14 | CC(C)(C)c1ccc(C(=O)Nc2cc(Cl)c(-c3ccc(OC(F)(F)F)cc3)cc2C(=O)O)cc1 [SID162211074] | – | – | – | IC50 [5]: > 10 µM; IC50 [6]: > 10 µM
15 | OC[C@H]1OC(O)[C@H](O)[C@@H](O)[C@@H]1O (stereo partly shown) [glucose] | – | – | – | Km ([1]; co-substrate ATP): 42.5 ± 7.3 µM
16 | CC(C)(C)c1ccc(C(=O)Nc2cc(Cl)c(C3CC3)cc2C(=O)O)cc1 [compound 6, SID162211071] | > 10 | > 10 | 6.7 ± 0.38 | –
17 | CC(C)(C)c1ccc(C(=O)Nc2cc(Cl)c(-c3cccc(Cl)c3)cc2C(=O)O)cc1 [compound 11, SID162211084] | > 10 | 6.5 ± 0.61 | > 10 | –
18 | CC(C)(C)c1ccc(C(=O)Nc2cc(Cl)c(-c3ccc(C(=O)O)cc3)cc2C(=O)O)cc1 [SID162211072] | – | – | – | IC50 [5]: 3.5 µM; IC50 [6]: > 10 µM
19 | Nc1ncnc2c1ncn2[C@@H]1O[C@H](COP(=O)(O)OP(=O)(O)O)[C@@H](O)[C@H]1O [ADP] | – | – | – | Ki [7]: 116 ± 7 µM
20 | CC(C)(C)c1ccc(C(=O)Nc2cc(Cl)c(-c3cccc([N+](=O)[O-])c3)cc2C(=O)O)cc1 [SID162211082] | – | – | – | IC50 [5]: > 10 µM; IC50 [6]: > 10 µM
21 | O=c1c2ccccc2[se]n1-c1ccccc1 [compound 3, 2-phenyl-1,2-benzisoselenazol-3(2H)-one] | – | 0.88 ± 0.06 | – | –
22 | CC(C)(C)c1ccc(C(=O)Nc2cc(Cl)c(-c3ccccc3)cc2C(=O)O)cc1 [compound 8, SID144241590] | > 10 | > 10 | 0.28 | IC50 [8]: > 10 µM
23 | N[C@H]1C(O)O[C@H](CO)[C@@H](O)[C@@H]1O (stereo partly shown) [glucosamine] | – | – | – | Ki ([7]; competitive inhibitor of glucose): 186 ± 20.6 µM
24 | CC(C)(C)c1ccc(C(=O)Nc2cc(Cl)c(-c3ccc(C(F)(F)F)cc3)cc2C(=O)O)cc1 [SID162211070] | – | – | – | IC50 [5]: > 10 µM; IC50 [6]: > 10 µM
25 | Cc1ccccc1-c1cc(C(=O)O)c(NC(=O)c2ccc(C(C)(C)C)cc2)cc1Cl [compound 18, SID162211086] | > 10 | > 10 | > 10 | –

Reference: article doi:10.1101/469072v1 (biorxiv, 2018)
